Columns and labels:
TUB1 = assay: Multigene assay (QuantiGene Plex 2.0), mouse MEF cell line; assay type: cell-based; settings: 6 hours post-compound treatment, Table 1a
In short: (§1)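 Transcript levels after 6 h compound exposure (7 concentrations) are measured by bDNA hybridization on magnetic beads and SAPE fluorescence. Fold change uses DMSO, then housekeeping-gene, normalization.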

GCLM = assay: as above; assay type: cell-based; settings: 6 hours post-compound treatment, Table 1a
In short: as §1

HSPA1a = assay: as above; assay type: cell-based; settings: 6 hours post-compound treatment, Table 1b
In short: as §1

HMOX = assay: as above; assay type: cell-based; settings: 6 hours post-compound treatment, Table 1b
In short: as §1

HspA5 = assay: as above; assay type: cell-based; settings: 6 hours post-compound treatment, Table 1b
In short: as §1

DDIT3 = assay: as above; assay type: cell-based; settings: 6 hours post-compound treatment, Table 1a
In short: as §1

BCL2 = assay: as above; assay type: cell-based; settings: 6 hours post-compound treatment, Table 1b
In short: as §1

firefly luciferase = assay: Luciferase folding assay (Lucif.); assay type: cell-based, human; settings: HeLa-luciferase cells; Table 1a
From the text: Firefly luciferase is a commonly used bioluminescent reporter. This monomeric enzyme of 61 kDa catalyzes a two-step oxidation reaction to yield light, usually in the green to yellow region, typically 550-570 nm. The first step of this reaction is activation of the luciferyl carboxylate by ATP to yield a reactive mixed anhydride. In the second step, the activated intermediate reacts with oxygen to create a transient dioxetane that breaks down to the oxidized products, oxyluciferin and CO2. Upon mixing with substrates, firefly luciferase produces an initial burst of light that decays over about 15 seconds to a low level of sustained luminescence. This kinetic profile reflects the slow release of the enzymatic product, thus limiting catalytic turnover after the initial reaction.
This mammalian cell based assay that used firefly luciferase as a sensor was used to screen for compounds that may modulate the cellular folding environment.
HeLa luciferase cell lines: Frozen bullets containing the cells were thawed briefly at 37° C. then placed into a T-150 flask containing 30-35 ml DMEM medium+Penicillin/Strep (1% final+10% FBS (final)+Geneticin @ 200-500 ug/ml. Cell cultures were maintained at 37° C. with 5% CO2 and water in the bottom of the incubator to keep cells healthy. Upon expanding cell line, luciferase measurements were taken to make sure that activity levels were between 2000-5000 (RLU) when plated at 15K/well in a 96-well format (Bright-Glo Promega) before compound treatment.
Compound treatment of HeLa-luciferase cells: HeLa-luciferase WT cells were plated in a 96-well format at 15K/well the day prior to performing compound treatment and/or luciferase assay. […] Final volume used per well was 90 uL. Flat bottom, white polystyrene plates were used for plating the cells.
For compound treatment, stocks of compounds were made up at 10 mM concentration in DMSO. Stocks compounds were diluted by 100× fold in the same media used for culturing the cells—this leads to a 0.1 mM (or 100 uM) concentration. After diluting the compound in media, 10 uL of the 100 uM solution was placed into each well of cells (90 uL); making the final concentration of the compound 10 uM. If serial dilutions of compounds were tested, serial dilutions of compounds were first made in DMSO accordingly, and further diluted in the media, prior to adding to cells. This procedure allowed for constant final levels of DMSO concentrations, regardless of initial compound concentration.
Performing luciferase activity assay: Bright-Glo Luciferase Assay Reagent (Promega cat #: E2610, E2620, E2650) was thawed out at RT in a water bath. Alternatively, Bright-Glo Luciferase assay buffer (prior to mixing with substrate) was stored overnight at RT, prior to using.
Following compound treatment, plates were removed from 37° C. and allowed to acclimate to RT for 5-10 min. Bright-Glo reagent was added to each cell-containing well in a 1:1 ratio (e.g., 100 uL of Bright Glo for each 100 uL cells).
Plates were placed on a plate shaker for 5 min, removing any air bubbles on the surface (which may interfere with proper reads), and then read on an EnVision 2104 Multilabel reader, Emission filter Luminescence 700, barcode 212, WL 400-700 nm.
Data for representative compounds in this assay are shown under the heading “Lucif.”

[1] = system: medium spiny neurons in rat brain slices transfected with human mutant huntingtin-based constructs; assay: Huntington's disease brain slice-based screening assay; assay type: cell-based; settings: ex vivo rat brain slices transfected with Htt-exon1-Q73 construct; at concentrations from 0.1 uM to 3 uM (tested 0.03, 0.1, 0.3, 1 and 3 uM)
Procedure: The FIGURE is a bar graph showing the number of healthy medium spiny neurons in rat brain slices for YFP, mN90Q73, KW+SP (positive control) and for [4-(2-isopropoxyphenyl)-2-methyl-5-oxo-7-(thiophen-2-yl)-1,4,5,6,7,8-hexahydroquinoline-3-carbonitrile] exposure at 0.03, 0.1, 0.3, 1 and 3 uM. Hemi-coronal brain slices containing striatum were prepared and transfected with control and huntingtin (Htt) constructs. YFP is Yellow Fluorescence Protein (YFP) plus vector. mN90Q73 is YFP plus the Htt-exon1-Q73 construct. The combination of KW-6002 (50 uM) and SP600125 (30 uM) was used as a positive control.
Selected compounds that modulated proteostasis network genes were tested in an ex vivo screening assay in which rat brain slices were transfected with human mutant huntingtin-based constructs as described in Reinhart et al., Identification of anti-inflammatory targets for Huntington's disease using a brain slice-based screening assay, Neurobiology of Disease (2011), 43(1), 248-256, the contents of which are expressly incorporated by reference herein. Hemi-coronal brain slices containing striatum were prepared and transfected with control and huntingtin (Htt) constructs.
50 uM KW-6002 (Istradefylline) in combination with 30 uM SP600125 was used as a positive control. YFP is Yellow Fluorescence Protein (YFP) plus vector. mN90Q73 is YFP plus the Htt-exonl-Q73 construct. […]

Structure (SMILES): CC1=C(C#N)C(c2ccccc2OC(C)C)C2=C(CC(c3cccs3)CC2=O)N1 (stereo not drawn) [drawing 26/Me/CN/o-OCHMe2, 4-(2-isopropoxyphenyl)-2-methyl-5-oxo-7-(thiophen-2-yl)-1,4,5,6,7,8-hexahydroquinoline-3-carbonitrile]
- TUB1 gene induction (TUB1): − (− Indicates less than 2 fold induction)
- GCLM gene induction (GCLM): − (− Indicates less than 2 fold induction)
- HSPA1a gene induction (HSPA1a): − (− Indicates less than 2 fold induction)
- HMOX gene induction (HMOX): − (− Indicates less than 2 fold induction)
- HspA5 gene induction (HspA5): − (− Indicates less than 2 fold induction)
- DDIT3 gene induction (DDIT3): − (− Indicates less than 2 fold induction)
- BCL2 gene induction (BCL2): − (− Indicates less than 2 fold induction)
- Lucif. (luciferase activity induction) (firefly luciferase): + (+ indicates a induction of greater than 2 fold)
- medium spiny neurons viability (number of healthy medium spiny neurons) [1]: improved medium spiny neurons viability

Reference: US20120214824A1, “PROTEOSTASIS REGULATORS” (priority 2010, published 2012)
